Consider six molecules from patent publication EP4596574A1, “GLP-1/GCG/GIP TRIPLE-RECEPTOR AGONIST AND USE THEREOF” (Sunshine Lake Pharma Co., Ltd., priority 2022, dated 2024).

The term EC50 denotes the concentration at which the effect is half-maximal.

Common to all, as to assay type: cell-based
One assay concerns the target T1, GLP-1R (Homo sapiens, UniProt P43220).
T1 construct: expressed in transfected cells; host or cells: HEK293 (HEK293-GLP-1R)
Briefly: In vitro cell activity, cAMP production in HEK293 cells expressing GLP-1R. Particulars: HEK293-GLP-1R cells, cAMP; read-out: GLP-1R (EC50). In a few lines: (§1)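 cAMP output read as 665/620 nm HTRF ratio after adding cAMP-d2 plus anti-cAMP cryptate and incubating 1 h at room temperature in the dark or overnight at 4 °C. Cells: HEK293 expressing human GLP-1R or GCGR, plated from a 4×10^5 cells/mL suspension. Four-parameter fit gives EC50.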
A general note: Cyclic AMP is a second messenger, typically raised through Gs and lowered through Gi signalling.

The next assay deals with T2, GCGR (Homo sapiens, UniProt P47871).
T2 construct: expressed in transfected cells; host or cells: HEK293 (HEK293-GCGR)
T2 sequence (P47871 26-477, species assumed): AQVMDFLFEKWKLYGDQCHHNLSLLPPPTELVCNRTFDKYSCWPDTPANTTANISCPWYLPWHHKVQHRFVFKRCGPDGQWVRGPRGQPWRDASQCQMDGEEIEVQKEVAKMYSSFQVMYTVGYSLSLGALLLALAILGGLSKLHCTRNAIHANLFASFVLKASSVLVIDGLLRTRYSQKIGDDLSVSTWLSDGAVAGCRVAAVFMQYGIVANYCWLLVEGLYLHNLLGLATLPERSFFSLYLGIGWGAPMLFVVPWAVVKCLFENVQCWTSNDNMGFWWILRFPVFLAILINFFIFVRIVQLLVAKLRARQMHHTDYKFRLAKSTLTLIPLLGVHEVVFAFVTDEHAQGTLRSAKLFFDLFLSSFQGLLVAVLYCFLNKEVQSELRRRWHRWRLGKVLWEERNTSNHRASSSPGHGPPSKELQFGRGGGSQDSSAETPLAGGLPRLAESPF
The experiment in a line: In vitro cell activity, cAMP production in HEK293 cells expressing GCGR. The following applies: HEK293-GCGR cells, cAMP; read-out: GCGR (EC50). In a few lines: as §1

The target in the next assay is T3, GIPR (Homo sapiens, UniProt P48546).
T3 construct: expressed in transfected cells; host or cells: HEK293 (HEK293-GIPR)
T3 sequence (P48546 22-466): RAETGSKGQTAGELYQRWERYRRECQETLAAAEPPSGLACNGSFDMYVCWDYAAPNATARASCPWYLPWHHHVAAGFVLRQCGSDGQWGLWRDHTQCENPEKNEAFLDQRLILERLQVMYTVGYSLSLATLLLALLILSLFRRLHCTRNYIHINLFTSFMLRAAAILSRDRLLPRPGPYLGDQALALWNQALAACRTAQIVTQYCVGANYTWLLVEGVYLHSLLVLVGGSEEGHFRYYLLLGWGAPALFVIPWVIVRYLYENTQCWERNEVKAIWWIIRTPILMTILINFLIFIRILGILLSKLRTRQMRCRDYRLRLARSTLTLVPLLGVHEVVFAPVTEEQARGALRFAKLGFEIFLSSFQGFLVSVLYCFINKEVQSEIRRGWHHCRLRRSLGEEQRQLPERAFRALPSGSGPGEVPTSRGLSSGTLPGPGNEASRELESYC
Briefly: In vitro cell activity, cAMP production in HEK293 cells expressing GIPR. The following applies: HEK293-GIPR cells, cAMP; read-out: GIPR (EC50). In a few lines: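 HEK293 cells expressing human GIPR, thawed and diluted to 4×10^5 cells/mL, are stimulated with test compound. cAMP is measured by HTRF competition between cAMP-d2 and anti-cAMP cryptate. EC50 comes from a four-parameter nonlinear fit of signal ratio against concentration.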

Starred links: 1 amine or outer side, 2 acyl side, 3 side chain; linkers in the order of their positions; H or OH if unused. Non-standard residues stand in square brackets, D forms with d. Residues, ends and D or L forms follow the SMILES beside them. Groups on a side chain read outwards from the residue. *: point of attachment. C20 diacid = O=C(O)CCCCCCCCCCCCCCCCCCC(=O)*; αMePhe(2-F) = C[C@](N)(Cc1ccccc1F)C(=O)O; γGlu = O=C(O)[C@H](CCC(=O)[*:2])N[*:1]; AEEA = NCCOCCOCC(=O)O; Aib = CC(C)(N)C(=O)O

T1 sequence (P43220 24-463, species assumed): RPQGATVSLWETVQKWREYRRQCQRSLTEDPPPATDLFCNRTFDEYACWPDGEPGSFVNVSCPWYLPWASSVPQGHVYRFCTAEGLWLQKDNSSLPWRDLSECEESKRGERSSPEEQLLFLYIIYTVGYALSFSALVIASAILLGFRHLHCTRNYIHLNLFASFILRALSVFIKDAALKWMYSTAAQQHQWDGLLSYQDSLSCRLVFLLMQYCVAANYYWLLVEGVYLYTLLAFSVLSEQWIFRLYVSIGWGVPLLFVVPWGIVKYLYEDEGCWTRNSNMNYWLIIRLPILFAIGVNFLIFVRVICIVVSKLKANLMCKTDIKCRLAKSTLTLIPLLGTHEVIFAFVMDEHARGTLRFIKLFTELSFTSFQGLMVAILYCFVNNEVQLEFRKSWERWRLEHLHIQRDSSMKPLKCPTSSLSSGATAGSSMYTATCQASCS

Consider `CC[C@H](C)[C@H](NC(=O)[C@H](Cc1ccccc1)NC(=O)[C@H](C)NC(=O)[C@H](Cc1c[nH]cn1)NC(=O)[C@H](CCC(N)=O)NC(=O)[C@H](C)NC(=O)[C@H](CCCCNC(=O)COCCOCCNC(=O)CC[C@H](NC(=O)CCCCCCCCCCCCCCCCC(=O)O)C(=O)O)NC(=O)[C@H](CCCNC(=N)N)NC(=O)[C@H](CC(=O)O)NC(=O)[C@H](CC(C)C)NC(=O)[C@H](CC(C)C)NC(=O)[C@@H](NC(=O)[C@H](CO)NC(=O)[C@H](Cc1ccc(O)cc1)NC(=O)[C@H](CC(=O)O)NC(=O)[C@H](CO)NC(=O)[C@@H](NC(=O)[C@](C)(Cc1ccccc1F)NC(=O)[C@@H](NC(=O)CNC(=O)[C@H](CCC(N)=O)NC(=O)C(C)(C)NC(=O)[C@@H](N)Cc1c[nH]cn1)[C@@H](C)O)[C@@H](C)O)[C@@H](C)CC)C(=O)N[C@@H](CCC(=O)O)C(=O)N[C@@H](Cc1ccc(O)cc1)C(=O)N[C@@H](CC(C)C)C(=O)N[C@@H](CC(C)C)C(=O)N[C@@H](C)C(=O)NCC(=O)NCC(=O)N1CCC[C@H]1C(=O)N[C@@H](CO)C(=O)N[C@@H](CO)C(=O)NCC(=O)N[C@@H](C)C(=O)N1CCC[C@H]1C(=O)N1CCC[C@H]1C(=O)N1CCC[C@H]1C(=O)N[C@@H](CO)C(=O)O` [HEC-PT155], for which the figures for the EC50 at GLP-1R, on GCGR and on GIPR were 0.0555 nM, 0.0581 nM and 0.0509 nM, respectively.
Taken in the same sequence, the figures for `CC[C@H](C)[C@H](NC(=O)[C@H](CCCCN)NC(=O)[C@H](CC(=O)O)NC(=O)[C@H](CCCCNC(=O)COCCOCCNC(=O)CC[C@H](NC(=O)CCCCCCCCCCCCCCCCCCC(=O)O)C(=O)O)NC(=O)[C@H](CC(C)C)NC(=O)[C@@H](NC(=O)[C@H](CO)NC(=O)[C@H](Cc1ccc(O)cc1)NC(=O)[C@H](CC(=O)O)NC(=O)[C@H](CO)NC(=O)[C@@H](NC(=O)[C@](C)(Cc1ccccc1F)NC(=O)[C@@H](NC(=O)CNC(=O)[C@H](CCC(N)=O)NC(=O)C(C)(C)NC(=O)[C@@H](N)Cc1ccc(O)cc1)[C@@H](C)O)[C@@H](C)O)[C@@H](C)CC)C(=O)N[C@@H](C)C(=O)N[C@@H](CCC(N)=O)C(=O)NC(C)(C)C(=O)N[C@@H](C)C(=O)N[C@@H](Cc1ccccc1)C(=O)N[C@H](C(=O)N[C@@H](CCC(=O)O)C(=O)N[C@@H](Cc1ccc(O)cc1)C(=O)N[C@@H](CC(C)C)C(=O)N[C@@H](CC(C)C)C(=O)N[C@@H](C)C(=O)NCC(=O)NCC(=O)N1CCC[C@H]1C(=O)N[C@@H](CO)C(=O)N[C@@H](CO)C(=O)NCC(=O)N[C@@H](C)C(=O)N1CCC[C@H]1C(=O)N1CCC[C@H]1C(=O)N1CCC[C@H]1C(=O)N[C@@H](CO)C(N)=O)[C@@H](C)CC` [HEC-PT138] (H-Y[Aib]QGT[αMePhe(2-F)]TSDYSILK([AEEA-γGlu-C20 diacid])DKIAQ[Aib]AFIEYLLAGGPSSGAPPPS-NH2) were 0.271 nM, 0.175 nM and 0.0649 nM.
As for `CC[C@H](C)[C@H](NC(=O)[C@H](Cc1ccccc1)NC(=O)[C@H](C)NC(=O)[C@H](CCCNC(=N)N)NC(=O)[C@H](CCC(N)=O)NC(=O)[C@H](CCCNC(=N)N)NC(=O)[C@H](CCCCNC(=O)COCCOCCNC(=O)CC[C@H](NC(=O)CCCCCCCCCCCCCCCCC(=O)O)C(=O)O)NC(=O)[C@H](CCC(=O)O)NC(=O)[C@H](CC(=O)O)NC(=O)[C@H](CC(C)C)NC(=O)[C@H](CC(C)C)NC(=O)[C@@H](NC(=O)[C@H](CO)NC(=O)[C@H](Cc1ccc(O)cc1)NC(=O)[C@H](CC(=O)O)NC(=O)[C@H](CO)NC(=O)[C@@H](NC(=O)[C@](C)(Cc1ccccc1F)NC(=O)[C@@H](NC(=O)CNC(=O)[C@H](CCC(N)=O)NC(=O)C(C)(C)NC(=O)[C@@H](N)Cc1ccc(O)cc1)[C@@H](C)O)[C@@H](C)O)[C@@H](C)CC)C(=O)N[C@@H](CCC(=O)O)C(=O)N[C@@H](Cc1ccc(O)cc1)C(=O)N[C@@H](CC(C)C)C(=O)N[C@@H](CC(C)C)C(=O)N[C@@H](C)C(=O)NCC(=O)NCC(=O)N1CCC[C@H]1C(=O)N[C@@H](CO)C(=O)N[C@@H](CO)C(=O)NCC(=O)N[C@@H](C)C(=O)N1CCC[C@H]1C(=O)N1CCC[C@H]1C(=O)N1CCC[C@H]1C(=O)N[C@@H](CO)C(=O)O` [HEC-PT134], the figures for the concentration giving a half-maximal response (EC50) at GLP-1R, on GCGR and on GIPR were 0.146 nM, 0.862 nM and 0.207 nM, respectively.
Taken in the same sequence, the figures for `CC[C@H](C)[C@H](NC(=O)[C@H](Cc1ccccc1)NC(=O)[C@H](C)NC(=O)[C@H](CCCNC(=N)N)NC(=O)[C@H](CCC(N)=O)NC(=O)[C@H](C)NC(=O)[C@H](CCCCNC(=O)COCCOCCNC(=O)CC[C@H](NC(=O)CCCCCCCCCCCCCCCCCCC(=O)O)C(=O)O)NC(=O)[C@H](CCC(=O)O)NC(=O)[C@H](CC(=O)O)NC(=O)[C@H](CC(C)C)NC(=O)[C@H](CC(C)C)NC(=O)[C@@H](NC(=O)[C@H](CO)NC(=O)[C@H](Cc1ccc(O)cc1)NC(=O)[C@H](CC(=O)O)NC(=O)[C@H](CO)NC(=O)[C@@H](NC(=O)[C@](C)(Cc1ccccc1F)NC(=O)[C@@H](NC(=O)CNC(=O)[C@H](Cc1c[nH]cn1)NC(=O)C(C)(C)NC(=O)[C@@H](N)Cc1ccc(O)cc1)[C@@H](C)O)[C@@H](C)O)[C@@H](C)CC)C(=O)N[C@@H](CCC(=O)O)C(=O)N[C@@H](Cc1ccc(O)cc1)C(=O)N[C@@H](CC(C)C)C(=O)N[C@@H](CC(C)C)C(=O)N[C@@H](C)C(=O)NCC(=O)NCC(=O)N1CCC[C@H]1C(=O)N[C@@H](CO)C(=O)N[C@@H](CO)C(=O)NCC(=O)N[C@@H](C)C(=O)N1CCC[C@H]1C(=O)N1CCC[C@H]1C(=O)N1CCC[C@H]1C(=O)N[C@@H](CO)C(=O)O` [HEC-PT83] were 0.256 nM, 0.311 nM and 0.158 nM.
As for `CC[C@H](C)[C@H](NC(=O)[C@H](Cc1ccccc1)NC(=O)[C@H](C)NC(=O)[C@H](CCC(N)=O)NC(=O)[C@H](C)NC(=O)[C@H](CCCNC(=N)N)NC(=O)[C@H](CCCCNC(=O)COCCOCCNC(=O)CC[C@H](NC(=O)CCCCCCCCCCCCCCCCCCC(=O)O)C(=O)O)NC(=O)[C@H](CCC(=O)O)NC(=O)[C@H](CC(=O)O)NC(=O)[C@H](CC(C)C)NC(=O)[C@H](CC(C)C)NC(=O)[C@@H](NC(=O)[C@H](CO)NC(=O)[C@H](Cc1ccc(O)cc1)NC(=O)[C@H](CC(=O)O)NC(=O)[C@H](CO)NC(=O)[C@@H](NC(=O)[C@](C)(Cc1ccccc1F)NC(=O)[C@@H](NC(=O)CNC(=O)[C@H](CCC(N)=O)NC(=O)C(C)(C)NC(=O)[C@@H](N)Cc1ccc(O)cc1)[C@@H](C)O)[C@@H](C)O)[C@@H](C)CC)C(=O)N[C@@H](CCC(=O)O)C(=O)N[C@@H](Cc1ccc(O)cc1)C(=O)N[C@@H](CC(C)C)C(=O)N[C@@H](CC(C)C)C(=O)N[C@@H](CCC(=O)O)C(=O)NCC(=O)NCC(=O)N1CCC[C@H]1C(=O)N[C@@H](CO)C(=O)N[C@@H](CO)C(=O)NCC(=O)N[C@@H](C)C(=O)N1CCC[C@H]1C(=O)N1CCC[C@H]1C(=O)N1CCC[C@H]1C(=O)N[C@@H](CO)C(=O)O` [HEC-PT94], the values for the EC50 on GLP-1R, on GCGR and at GIPR were 0.541 nM, 0.0442 nM and 1.3 nM, respectively.
Taken in the same sequence, the figures for `CC[C@H](C)[C@H](NC(=O)[C@H](Cc1ccccc1)NC(=O)[C@H](CCC(=O)O)NC(=O)[C@H](CCC(N)=O)NC(=O)[C@H](CCC(N)=O)NC(=O)[C@H](CCCNC(=N)N)NC(=O)[C@H](CCCCNC(=O)COCCOCCNC(=O)CC[C@H](NC(=O)CCCCCCCCCCCCCCCCCCC(=O)O)C(=O)O)NC(=O)[C@H](CCCNC(=N)N)NC(=O)[C@H](CC(=O)O)NC(=O)[C@H](CC(C)C)NC(=O)[C@H](CC(C)C)NC(=O)[C@@H](NC(=O)[C@H](CO)NC(=O)[C@H](Cc1ccc(O)cc1)NC(=O)[C@H](CC(=O)O)NC(=O)[C@H](CO)NC(=O)[C@@H](NC(=O)[C@](C)(Cc1ccccc1F)NC(=O)[C@@H](NC(=O)CNC(=O)[C@H](CCC(N)=O)NC(=O)C(C)(C)NC(=O)[C@@H](N)Cc1ccc(O)cc1)[C@@H](C)O)[C@@H](C)O)[C@@H](C)CC)C(=O)N[C@@H](CCC(=O)O)C(=O)N[C@@H](Cc1c[nH]c2ccccc12)C(=O)N[C@@H](CC(C)C)C(=O)N[C@@H](CC(C)C)C(=O)N[C@@H](C)C(=O)NCC(=O)NCC(=O)N1CCC[C@H]1C(=O)N[C@@H](CO)C(=O)N[C@@H](CO)C(=O)NCC(=O)N[C@@H](C)C(=O)N1CCC[C@H]1C(=O)N1CCC[C@H]1C(=O)N1CCC[C@H]1C(=O)N[C@@H](CO)C(=O)O` [HEC-PT127] were 0.127 nM, 0.0707 nM and 0.0465 nM.
